Assay results published in patent US20230407243A1, “GENETIC PLATFORM TO INVESTIGATE THE FUNCTIONS OF BACTERIAL DRUG EFFLUX PUMPS” (priority 2022, published 2023).
Where two headings read alike, the source gives them in different places.

Tests used:
Type in all cases: cell-based, Escherichia coli
E. coli EKO-35 = test: microbe, parasite or virus in culture; conditions: for Fold change of MICs: EKO-35 compared to EKO-35 (reference); for MIC: Escherichia coli, EKO35
How it was run: (§1)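 Steps: LB overnight culture at 37 °C; resuspension in PBS to OD600 ~1.0; 1/2000 dilution in MHB II; addition to 2-fold serial compound dilutions (duplicate); 18 h shaking incubation at 37 °C; OD600 read, with pre-read subtracted.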

E. coli ΔtolC = test: microbe, parasite or virus in culture; conditions: for Minimum inhibitory concentration (MIC), ΔtolC: Table 10, without pore
How it was run: as §1

[1] = test system: wild-type E. coli K-12 str. BW25113; test: microbe, parasite or virus in culture; conditions: technical duplicate; for MIC: Escherichia coli, BW25113
How it was run: as §1

EKO-35 araC::acrBD408A = test: MIC susceptibility profiling, efflux platform; conditions: for Fold change of MICs: EKO-35 araC::acrBD408A compared to EKO-35
How it was run: as §1

EKO-35 araC::acrB = test: MIC susceptibility profiling, efflux platform; conditions: for Fold change of MICs: EKO-35 araC::acrB compared to EKO-35
How it was run: as §1

EKO-35 araC::acrD = test: MIC susceptibility profiling, efflux platform; conditions: for Fold change of MICs: EKO-35 araC::acrD compared to EKO-35
How it was run: as §1

EKO-35 araC::acrEF = test: MIC susceptibility profiling, efflux platform; conditions: for Fold change of MICs: EKO-35 araC::acrEF compared to EKO-35
How it was run: as §1

EKO-35 araC::emrAB = test: MIC susceptibility profiling, efflux platform; conditions: for Fold change of MICs: EKO-35 araC::emrAB compared to EKO-35
How it was run: as §1

EKO-35 araC::emrKY = test: MIC susceptibility profiling, efflux platform; conditions: for Fold change of MICs: EKO-35 araC::emrKY compared to EKO-35
How it was run: as §1

EKO-35 araC::macAB = test: MIC susceptibility profiling, efflux platform; conditions: for Fold change of MICs: EKO-35 araC::macAB compared to EKO-35
How it was run: as §1

EKO-35 araC::mdtBC = test: MIC susceptibility profiling, efflux platform; conditions: for Fold change of MICs: EKO-35 araC::mdtBC compared to EKO-35
How it was run: as §1

EKO-35 araC::mdtEF = test: MIC susceptibility profiling, efflux platform; conditions: for Fold change of MICs: EKO-35 araC::mdtEF compared to EKO-35
How it was run: as §1

[2] = test system: EKO-35 araC::mexCD (MexCD from P. aeruginosa); test: MIC susceptibility profiling, efflux platform; conditions: for Fold change of MICs: EKO-35 araC::mexCD compared to EKO-35
How it was run: as §1

wild-type (WT) K-12-Pore = test: microbe, parasite or virus in culture; conditions: technical duplicate; for MIC: Escherichia coli
How it was run: (§2)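 Strains carry the fhuA ΔC/Δ4L pore integrated between glmS and pstS under a constitutive promoter, with pore activity checked by vancomycin susceptibility. Overnight LB cultures were adjusted in PBS pH 7.4 to OD600 ~1.0 and diluted 1/2000 into MHB II. 2-fold compound titrations were read by OD600 after 18 h at 37 °C.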

ΔtolC-Pore = test: microbe, parasite or virus in culture; conditions: for Minimum inhibitory concentration (MIC), Pore ΔtolC: Table 10, with pore
How it was run: as §2

EKO-35 araC::acrEF Pore = test: MIC susceptibility profiling, porinated efflux platform
How it was run: as §2

EKO-35 araC::emrKY Pore = test: as above; conditions: for Fold changes of MICs: EKO-35 araC::emrKY Pore compared to EKO-35-Pore
How it was run: as §2

EKO-35 araC::macAB Pore = test: as above; conditions: for Fold changes of MICs: EKO-35 araC::macAB Pore compared to EKO-35-Pore
How it was run: as §2

EKO-35 araC::mdtEF Pore = test: as above; conditions: for Fold changes of MICs: EKO-35 araC::mdtEF Pore compared to EKO-35-Pore
How it was run: as §2

[3] = Table 13A, non-porinated, technical duplicate
[4] = Table 13B, non-porinated, technical duplicate
[5] = Table 14A, porinated, technical duplicate

SMILES: [H]/N=C(\N/C(=N/[H])NCCCCCCNC(=N)NC(=N)Nc1ccc(Cl)cc1)Nc1ccc(Cl)cc1 [Chlorhexidine]
- Fold change of MICs (E. coli EKO-35): 1 fold
- MIC (E. coli EKO-35; Table 10, without pore, technical duplicate, read-out: Minimum inhibitory concentration (MIC), EKO-35): 0.391 µg/mL
- MIC (E. coli EKO-35; Table 13A, non-porinated, technical duplicate, read-out: Minimum Inhibitory Concentration, EKO-35): 0.391 µg/mL
- MIC (E. coli ΔtolC; Escherichia coli, 18 h, read-out: Minimum Inhibitory Concentration, ΔtolC): 0.391 µg/mL
- Minimum inhibitory concentration (MIC), ΔtolC (E. coli ΔtolC; technical duplicate): 0.391 µg/mL
- MIC ([1]; Table 10, without pore, read-out: Minimum inhibitory concentration (MIC), K-12): 0.781 µg/mL
- MIC ([1]; Table 13A, non-porinated, read-out: Minimum Inhibitory Concentration, K-12): 0.781 µg/mL
- Fold change of MICs (EKO-35 araC::acrBD408A): 1 fold
- MIC (EKO-35 araC::acrBD408A; Escherichia coli, Table 13B, non-porinated, technical duplicate, read-out: Minimum Inhibitory Concentration, EKO-35 araC::acrBD408A): 0.391 µg/mL
- Fold change of MICs (EKO-35 araC::acrB): 1 fold
- MIC (EKO-35 araC::acrB; Escherichia coli, Table 13A, non-porinated, technical duplicate, read-out: Minimum Inhibitory Concentration, EKO-35 araC::acrB): 0.391 µg/mL
- Fold change of MICs (EKO-35 araC::acrD): 1 fold
- MIC (EKO-35 araC::acrD; Escherichia coli, Table 13A, non-porinated, technical duplicate, read-out: Minimum Inhibitory Concentration, EKO-35 araC::acrD): 0.391 µg/mL
- Fold change of MICs (EKO-35 araC::acrEF): 1 fold
- MIC (EKO-35 araC::acrEF; Escherichia coli, Table 13A, non-porinated, technical duplicate, read-out: Minimum Inhibitory Concentration, EKO-35 araC::acrEF): 0.391 µg/mL
- Fold change of MICs (EKO-35 araC::emrAB): 1 fold
- MIC (EKO-35 araC::emrAB; Escherichia coli, Table 13B, non-porinated, technical duplicate, read-out: Minimum Inhibitory Concentration, EKO-35 araC::emrAB): 0.391 µg/mL
- Fold change of MICs (EKO-35 araC::emrKY): 1 fold
- MIC (EKO-35 araC::emrKY; Escherichia coli, Table 13B, non-porinated, technical duplicate, read-out: Minimum Inhibitory Concentration, EKO-35 araC::emrKY): 0.391 µg/mL
- Fold change of MICs (EKO-35 araC::macAB): 1 fold
- MIC (EKO-35 araC::macAB; Escherichia coli, Table 13B, non-porinated, technical duplicate, read-out: Minimum Inhibitory Concentration, EKO-35 araC::macAB): 0.391 µg/mL
- Fold change of MICs (EKO-35 araC::mdtBC): 1 fold
- MIC (EKO-35 araC::mdtBC; Escherichia coli, Table 13B, non-porinated, technical duplicate, read-out: Minimum Inhibitory Concentration, EKO-35 araC::mdtBC): 0.391 µg/mL
- Fold change of MICs (EKO-35 araC::mdtEF): 1 fold
- MIC (EKO-35 araC::mdtEF; Escherichia coli, Table 13A, non-porinated, technical duplicate, read-out: Minimum Inhibitory Concentration, EKO-35 araC::mdtEF): 0.391 µg/mL
- Fold change of MICs [2]: 1 fold
- MIC ([2]; Table 13B, non-porinated, technical duplicate, read-out: Minimum Inhibitory Concentration, EKO-35 araC::mexCD): 0.391 µg/mL
- MIC (wild-type (WT) K-12-Pore; Table 10, with pore, read-out: Minimum inhibitory concentration (MIC), Pore K-12): 0.781 µg/mL
- MIC (wild-type (WT) K-12-Pore; Table 14A, porinated, read-out: Minimum inhibitory concentration, K-12 (WT)-Pore): 0.781 µg/mL
- MIC (ΔtolC-Pore; Escherichia coli, 18 h, read-out: Minimum inhibitory concentration, ΔtolC-Pore): 0.391 µg/mL
- Minimum inhibitory concentration (MIC), Pore ΔtolC (ΔtolC-Pore; technical duplicate): 0.391 µg/mL
- Fold changes of MICs (EKO-35 araC::acrEF Pore; EKO-35 araC::acrEF Pore compared to EKO-35-Pore): 1 fold
- MIC (EKO-35 araC::acrEF Pore; Escherichia coli, Table 14A, porinated, technical duplicate, read-out: Minimum inhibitory concentration, EKO-35 araC::acrEF Pore): 0.391 µg/mL
- Fold changes of MICs (EKO-35 araC::emrKY Pore): 1 fold
- MIC (EKO-35 araC::emrKY Pore; Escherichia coli, EKO-35 araC::emrKY Pore, technical duplicate, read-out: Minimum inhibitory concentration): 0.391 µg/mL
- Fold changes of MICs (EKO-35 araC::macAB Pore): 1 fold
- MIC (EKO-35 araC::macAB Pore; Escherichia coli, EKO-35 araC::macAB Pore, technical duplicate, read-out: Minimum inhibitory concentration): 0.391 µg/mL
- Fold changes of MICs (EKO-35 araC::mdtEF Pore): 1 fold
- MIC (EKO-35 araC::mdtEF Pore; Escherichia coli, Table 14A, porinated, technical duplicate, read-out: Minimum inhibitory concentration, EKO-35 araC::mdtEF Pore): 0.391 µg/mL

SMILES: O=C(NC(=O)N1CCc2c([nH]c3ccccc23)C1C(F)(F)F)c1ccccc1 (stereo not drawn) [compound 13]
- Fold change of MICs (E. coli EKO-35): 1 fold
- Minimum inhibitory concentration (MIC), EKO-35 (E. coli EKO-35; Table 10, without pore, technical duplicate): 40 µg/mL
- Minimum Inhibitory Concentration, EKO-35 (E. coli EKO-35; [3]): 40 µg/mL
- susceptibility of EKO-35 to the compound (E. coli EKO-35; synthetic efflux substrates of FIG. 12): susceptible
- Minimum inhibitory concentration (MIC), ΔtolC (E. coli ΔtolC; technical duplicate): 1.25 µg/mL
- Minimum Inhibitory Concentration, ΔtolC (E. coli ΔtolC; [3]): 1.25 µg/mL
- Minimum inhibitory concentration (MIC), K-12 ([1]; Table 10, without pore): 320 µg/mL
- Minimum Inhibitory Concentration, K-12 ([1]; Table 13A, non-porinated): 320 µg/mL
- Fold change of MICs (EKO-35 araC::acrBD408A): 1 fold
- Minimum Inhibitory Concentration, EKO-35 araC::acrBD408A (EKO-35 araC::acrBD408A; [4]): 40 µg/mL
- Fold change of MICs (EKO-35 araC::acrB): 8 fold
- Minimum Inhibitory Concentration, EKO-35 araC::acrB (EKO-35 araC::acrB; [3]): 320 µg/mL
- Fold change of MICs (EKO-35 araC::acrD): 8 fold
- Minimum Inhibitory Concentration, EKO-35 araC::acrD (EKO-35 araC::acrD; [3]): 320 µg/mL
- Fold change of MICs (EKO-35 araC::acrEF): 8 fold
- Minimum Inhibitory Concentration, EKO-35 araC::acrEF (EKO-35 araC::acrEF; [3]): 320 µg/mL
- Fold change of MICs (EKO-35 araC::emrAB): 8 fold
- Minimum Inhibitory Concentration, EKO-35 araC::emrAB (EKO-35 araC::emrAB; [4]): 320 µg/mL
- Fold change of MICs (EKO-35 araC::emrKY): 1 fold
- Minimum Inhibitory Concentration, EKO-35 araC::emrKY (EKO-35 araC::emrKY; [4]): 40 µg/mL
- Fold change of MICs (EKO-35 araC::macAB): 1 fold
- Minimum Inhibitory Concentration, EKO-35 araC::macAB (EKO-35 araC::macAB; [4]): 40 µg/mL
- Fold change of MICs (EKO-35 araC::mdtBC): 1 fold
- Minimum Inhibitory Concentration, EKO-35 araC::mdtBC (EKO-35 araC::mdtBC; [4]): 40 µg/mL
- Fold change of MICs (EKO-35 araC::mdtEF): 8 fold
- Minimum Inhibitory Concentration, EKO-35 araC::mdtEF (EKO-35 araC::mdtEF; [3]): 320 µg/mL
- Fold change of MICs [2]: 8 fold
- Minimum Inhibitory Concentration, EKO-35 araC::mexCD [2, 4]: 320 µg/mL
- Minimum inhibitory concentration (MIC), Pore K-12 (wild-type (WT) K-12-Pore; Table 10, with pore): 320 µg/mL
- Minimum inhibitory concentration, K-12 (WT)-Pore (wild-type (WT) K-12-Pore; Table 14A, porinated): 320 µg/mL
- Minimum inhibitory concentration (MIC), Pore ΔtolC (ΔtolC-Pore; technical duplicate): 1.25 µg/mL
- Minimum inhibitory concentration, ΔtolC-Pore (ΔtolC-Pore; [5]): 1.25 µg/mL
- Minimum inhibitory concentration, EKO-35 araC::acrEF Pore (EKO-35 araC::acrEF Pore; [5]): 20 µg/mL
- Fold changes of MICs (EKO-35 araC::emrKY Pore): 1 fold
- Minimum inhibitory concentration (EKO-35 araC::emrKY Pore; EKO-35 araC::emrKY Pore, technical duplicate): 2.5 µg/mL
- Fold changes of MICs (EKO-35 araC::macAB Pore): 1 fold
- Minimum inhibitory concentration (EKO-35 araC::macAB Pore; EKO-35 araC::macAB Pore, technical duplicate): 5 µg/mL
- Fold changes of MICs (EKO-35 araC::mdtEF Pore): 8 fold
- Minimum inhibitory concentration, EKO-35 araC::mdtEF Pore (EKO-35 araC::mdtEF Pore; [5]): 40 µg/mL
